In patent USRE35053E, “Amines useful in producing pharmaceutically active CNS compounds” (The Upjohn Company, priority 1992, dated 1995):
Structures can show the parent of a compound that is named as a salt.

Assays:
[1] = tested on: angiogenesis; test: fertile egg or chick embryo assay of Folkman (inhibition of angiogenesis / tumor growth); type: in vivo; details: chick embryo; for inhibition of angiogenesis: 50 μg/10 μl with heparin, avascular zone 4 mm or greater
Protocol: According to this procedure compounds which are considered to be "active" (i.e, antiangiogenic) give an avascular zone of 4 mm or greater in some embryos when tested at 50 μg/10 μl in the presence of 50 μg/10 μ of heparin.

[2] = tested on: arachidonic acid; test: Arachidonic Acid Antagonism Assay (AAAA); type: in vivo, mouse (Charles River male CF-1); details: mice; for arachidonic acid antagonism (elevation of LD50 of arachidonic acid): IV, 15 min before sodium arachidonate, outside 95% confidence interval of control LD50
Protocol: While not necessary to determine arachidonic acid antagonism, the above assay has been modified as follows: Charles River male CF-1 mice weighing […] are treated IV with the test compound dissolved in 1.0% Tween-80 and 0.1% hydrochloric acid in distilled water. 0 2 ml total volume. Fifteen minutes later sodium arachidonate (90% pure) in physiological (normal) […] is injected into the tail vein. The LD50 is measured using the Spearman-Karber method with a log dose interval of 0.05 (N-6). Compounds which elevate the LD50 outside of the 95% confidence interval of the control LD50 are considered to be "active".

[3] = tested on: induced mucous secretions; test: inhibition of mucous secretion assay of Johnson; details: for inhibition of mucous secretion: inhibit or block enhancement of induced mucous secretions; for preferred mucous inhibitors per test results: ranking in words
From the text: The inhibition of mucous secretion assay of Johnson Int. […] According to this procedure compounds which inhibit or block enhancement of induced mucous secretions when tested are considered to be "active".

[4] = tested on: conjugated diene formation in rat brain synaptosomes; test: Conjugated diene formation assay (lipid peroxidation); type: biochemical; details: 100 μM (or less) of the drug, active = 50% inhibition or more
Protocol: The formation of conjugated dienes as assayed by Braughler. […] Bucher, Fund.
Synaptosomal suspension (10 μl) is added to 1 ml of physiological (normal) saline containing 1% Lubrol PX (Sigma Chemical Co. St. Louis, Mo.). […] The reaction is started by the rapid addition of 200 μM ferrous ammonium sulfate prepared in argon-purged water. The sample is rapidly mixed and the change in absorbance at 232nm is followed in a Gilford Response Spectrophotometer equipped with a rapid sampler. Due to the rapidity of the reaction, rapid addition of the iron, rapid mixing and sampling are obligatory to the accuracy of the assay. For best results absorbance readings of one/sec should be started within 5 sec following the addition of iron. The initial linear rate of absorbance change during the first 30 sec of reaction are compared with the rate of a reaction containing all reagents except synaptosomes. The difference in rates is the rate of conjugated diene formation. Rates with drug are compared to rates obtained in the absence of drug and the % inhibition is calculated.

[5] = tested on: interleukin-1; test: inhibition of interleukin-1 induced T cell proliferation assay; type: cell-based; details: active = >30% at 10^-6 M
From the text: The inhibition of interleukin-1 induced T cell proliferation assay, Proc. Nat. […] Since people with arthritis make excess interleukin 1, compounds which inhibit the activity of interleukin 1 are useful in the treatment of arthritis. According to this procedure compounds which inhibit the activity of interleukin 1 greater that 30% at 10^-6 M are considered to be "active".

[6] = tested on: MDA formation in rat brain synaptosomes; test: Malonyldialdehyde (MDA) Formation Assay (lipid peroxidation); type: biochemical; details: active = 50% inhibition or more at 200 μM or less
From the text: The MDA assays of Buege and Aust, Methods in Enzymology, Fleisher and Packer Editors. Academic Press, 1978, New York, Vol LII, p 302-310 and Kohn and Liversedge, J. Pharmacol. Exp. Ther. 82. […] Since iipid peroxidation is involved in the pathophysiology of central nervous system trauma, compounds which inhibit MDA formation are useful in treating the conditions listed below.
While not necessary to determine MDA formation, the above assays have been modified as follows: rat brain synaptosomes are prepared as described in the Example about the conjugated diene assay, except that the final wash of the synaptosomes and final suspension are in physiological (normal) saline in which the pH has been adjusted to 7 0. The synaptosomes are incubated for 10 min at 37° in physiological (normal) saline pH 7.0 (total volume=100 ul) containing; 10 ul synaptosomal suspension. 10% DMSO plus or minus drug. 150 uM Fe^+++ and 50 uM Fe^++. The incubation is started by the rapid addition of iron to the otherwise complete reaction. The iron solutions are prepared fresh as ferric chloride and ferrous ammonium sulfate in argon-purged water. Following the 10 min incubation, the reaction is stopped by the addition of 500 ul ice-cold 12% trichloroacetic acid prepared in 0.5 N hydrochloric acid. Water (300 ul) is then added along with 100 ul of freshly prepared thiobarbituric acid (3.3% in 0.5N sodium hydroxide) and 10 ul of 5mM desferrioxamine. The sample is then heated in a boiling water bath for 20 minutes. The samples are cooled and centrifuged for 15 minutes at 1500 xg and the absorbance of the supernatant fraction is read at 532 nm. The % inhibition of MDA formation is calculated by dividing the absorbance of sample containing drug by the absorbance of samples incubated without drug. Reaction blanks are samples incubated in the absence of iron A compound that inhibits MDA formation by 50% or more at a concentration of 200μM or less is considered "active".

[7] = tested on: AcylCoA:Cholesterol Acyltransferase (ACAT); test: AcylCoA:Cholesterol Acyltransferase (ACAT) inhibition Assay; type: cell-based; parameters: key: compounds which inhibit ACAT activity equal to, or greater than, that of chlorpromazine are considered "active"; details: active = equal to or greater than chlorpromazine; Fu5AH cells preferred
From the text: ACAT esterifies arterial cholesterol which is a key reaction in the development of atherosclerosis. The procedure of Bell, Can. J. Blochem. 60. […] In the ACAT assay it is preferred to use Fu5AH cells, see Lipids 9, 526 (1974). According to this procedure, compounds which inhibit ACAT activity equal to, or greater than, that of chlorpromazine are considered "active".

Compound	inhibition of mucous secretion [3]	inhibition of conjugated diene formation [4]	inhibition of interleukin 1 [5]	inhibition of MDA formation [6]	further results
CS(=O)(=O)O.C[C@]12CCC(=O)C=C1CC[C@@H]1C2=CC[C@@]2(C)[C@H]1CC[C@]2(O)C(=O)CN1CCN(c2ccccn2)CC1 [Example 2, 17α-Hydroxy-21-[4-(2-pyridinyl)-1piperazinyl]pregna-4,9(11)-diene-3,20di-one methanesulfonate]	demonstrate such activity	demonstrate such activity	–	–	% of Embryos with 4 mm or Greater A vascular Zone ([1]; 50 μg/10 μl in the presence of heparin): 85%; arachidonic acid antagonism (elevation of LD50 of arachidonic acid) [2]: demonstrate arachidonic acid antagonism; preferred mucous inhibitors per test results [3]: preferred mucous inhibitors
CC(CN1CCN(c2cc(N3CCCC3)nc(N3CCCC3)n2)CC1)[C@H]1CC[C@H]2[C@@H]3CCC4=CC(=O)C=C[C@]4(C)[C@H]3CC[C@]12C.CS(=O)(=O)O.O (stereo partly shown) [Example 112, 21-[4-(2,6-Bis(1-pyrrolidinyl)-4-pyrimidinyl)-1-piperazinyl]-20-methylpregna-1,4-dien-3-one methanesulfonate, hydrate]	–	demonstrate such activity	–	–	–
CCN(CC)c1cc(N2CCN(CC(=O)[C@@]3(O)CC[C@H]4[C@@H]5CCC6=CC(=O)CC[C@]6(C)C5=CC[C@@]43C)CC2)nc(N)n1 [Example 4, 21-[4-[2.Amino-6-(diethylamino)-4-pyrimidinyl]1-piperazinyl]-17α-hydroxypregna-4,9(11)-diene-3,20-dione]	demonstrate such activity	demonstrate such activity	–	–	arachidonic acid antagonism (elevation of LD50 of arachidonic acid) [2]: demonstrate arachidonic acid antagonism
C[C@]12CCC(=O)C=C1CC[C@@H]1C2=CC[C@@]2(C)[C@H]1CC[C@]2(O)C(=O)CN1CCC(O)(c2ccc(C(F)(F)F)cc2)CC1 [Example 5, 17α-Hydroxy-21-[4-hydroxy-4 (4-trifiuoromethyl)phenyl 1-piperidinyl]pregna-4,9(11)-diene-3 20-dione]	–	demonstrate such activity	–	–	–
C[C@]12CCC(=O)C=C1CC[C@@H]1C2=CC[C@@]2(C)[C@H]1CC[C@]2(O)C(=O)CN1CCN(c2cc(N3CCOCC3)nc(N3CCOCC3)n2)CC1 [Example 105, 21-[4-(2,6-Bis(4-morpholino)-4-pyrimidinyl)-1-piperazinyl]-17α-hydroxypregna-4,9(11)-diene-3,20-dione dihydrochloride, hydrate]	demonstrate such activity	–	demonstrate inhibition of interleukin 1	–	inhibition of angiogenesis [1]: demonstrate inhibition of angiogenesis; preferred mucous inhibitors per test results [3]: preferred mucous inhibitors
CS(=O)(=O)O.CS(=O)(=O)O.C[C@@H]1C[C@H]2[C@@H]3CCC4=CC(=O)C=C[C@]4(C)C3=CC[C@]2(C)[C@H]1C(=O)CN1CCN(c2cc(N3CCCC3)nc(N3CCCC3)n2)CC1 [Example 83, 16α-Methyl-21-[4-(2,6-bis(1-pyrrolidinyl)-4-pyrimidinyl]-1-piperazinyl]pregna-1,4,9(11)-triene-3,20-dione dimethane-sulfonate]	demonstrate such activity	demonstrate such activity	demonstrate inhibition of interleukin 1	demonstrate such activity	inhibition of angiogenesis [1]: demonstrate inhibition of angiogenesis; preferred mucous inhibitors per test results [3]: preferred mucous inhibitors
CCN(CC)c1nc(N2CCCCC2)cc(N2CCN(CC(=O)[C@@]3(O)CC[C@H]4[C@@H]5CCC6=CC(=O)CC[C@]6(C)C5=CC[C@@]43C)CC2)n1.Cl.O [Example 17, 17α-Hydroxy-21-[4-[2-(diethylamino)-6-(1-piperidinyl)-4-pyrimidinyl]-1-piperazinyl]pregna-4,9(11)-diene-3,20-dione hydrochloride hydrate]	–	–	–	demonstrate such activity	inhibition of ACAT [7]: active; % of Control LD50 ([2]; 100 mg/kg, LD50 of sodium arachidonate): 150%
C[C@H]1C[C@@H]2C(=CC[C@@]3(C)[C@H]2CC[C@]3(O)C(=O)CN2CCN(c3cc(N4CCCC4)nc(N4CCCC4)n3)CC2)[C@@]2(C)C=CC(=O)C=C12 [Example 47, 17α-hydroxy-6α-methyl-21-[4-[2,6-bis(1-pyrrolidinyl)-4-pyrimidinyl-1-piperazinyl)pregna-1,4,9(11)-triene-3,20-dione,(E)-2-butenodioate salt]	–	demonstrate such activity	demonstrate inhibition of interleukin 1	demonstrate such activity	arachidonic acid antagonism (elevation of LD50 of arachidonic acid) [2]: demonstrate arachidonic acid antagonism
C[C@]12C=CC(=O)C=C1CC[C@@H]1C2=CC[C@]2(C)[C@@H](C(=O)CN3CCN(c4cc(N5CCCC5)nc(N5CCCC5)n4)CC3)CC[C@@H]12.Cl.Cl [Example 111, 21-[4-(2,6-Bis(1-pyrrolidinyl)-4-pyrimidinyl)-1-piperazinyl]pregna-1,4,9(11)-triene-3,20-dione dihydrochloride]	–	demonstrate such activity	–	–	–
C[C@@H]1C[C@H]2[C@@H]3CCC4=CC(=O)C=C[C@]4(C)[C@H]3[C@H](O)C[C@]2(C)[C@H]1C(=O)CN1CCN(c2cc(N3CCCC3)nc(N3CCCC3)n2)CC1 [Example 84, 11α-hydroxy-16α-methyl-21-[4-[2,6-bis(1-pyrrolidinyl)-4-pyrimidinyl]-1-piperazinyl]pregna-1,4-diene 3,20-dione]	–	demonstrate such activity	demonstrate inhibition of interleukin 1	–	–
C[C@@H]1C[C@H]2[C@@H]3CCC4=CC(=O)C=C[C@]4(C)C3=CC[C@]2(C)[C@H]1C(=O)CN1CCN(c2cc(N3CCOCC3)nc(N3CCOCC3)n2)CC1 [Example 86, 16α-methyl-21-[4-[2,6-bis(4-morpholino)-4-pyrimidinyl]-1-piperazinyl]pregna-1,4,9(11)-triene-3,20-dione]	–	demonstrate such activity	demonstrate inhibition of interleukin 1	demonstrate such activity	inhibition of angiogenesis [1]: demonstrate inhibition of angiogenesis
